In assay [1] the target is Recombinant RIPK2 protein (Homo sapiens, UniProt O43353). As to the kind of experiment: Receptor Interacting Protein Kinase 2 (RIPK2) enzyme assay (ADP-Glo). The assay is classed as biochemical. As to conditions: for inhibition at 0.5 µM: Conc. 500 nM. The procedure:
Receptor Interacting Protein Kinase 2 (RIPK2) Enzyme Assay
Recombinant RIPK2 protein (20 ng per reaction) is diluted in the reaction buffer consisting of 40 mM Tris (pH 7.5); 20 mM MgCl2; 0.1 mg/ml BSA; 50 μM DTT. Diluted protein is added to low volume white 384 well plates (2 μL/well). Inhibitors are diluted in reaction buffer (final 25% DMSO), 1 μL is added to each well and incubated 5 min at room temperature. Reactions are initiated by the addition of 2 μL of 100 μM ATP and 1 mg/ml RS repeat peptide (SignalChem) in the reaction buffer. Plates are sealed with plastic coverslips and incubated at room temperature for 2 h. Reactions are stopped by the addition of 5 μL of ADP-Glo reagent (Promega) and ADP generation reaction is performed for 40 min at room temperature. Luminescence signal is generated by the addition of 10 μL of Kinase detection reagent (Promega) for 30 min at room temperature Luminescence signals are determined using appropriate luminescence plate-reader (typical integration time 0.3-1 sec). To calculate percent inhibition, average background signal is subtracted from test well and maximal signal wells. Inhibition, %=(1−(test signal/maximal signal))*100. The percent inhibition at a specified concentration is determined or IC50 values are calculated based on a dose range of inhibitor concentrations using non-linear regression in GraphPad Prism software.

Assay [2] relates to NOD2 cellular signaling in HEK-Blue cells expressing human NOD2. As to the kind of experiment: NOD2 cell signaling assay (HEK-Blue, NFkB-SEAP reporter, L18-MDP stimulated). As to conditions: read-out: IC50 (nM) HEKBlue RIPK2. The format is cell-based. The procedure:
NOD2 Cell Signaling Assay.
HEK-Blue cells expressing human NOD2 and NFkB-SAEP reporter (Invivogen) are seeded into 96 well clear plates at 7.5×10^3 cells per well in 100 μL of DMEM media supplemented with 10% FBS and 1% antibiotic-antimycotic mix. Cells are allowed to attach for 48 h in 5% CO2 tissue culture incubator at 37° C. On the morning of the experiment, media in the wells is replaced with 100 pt of HEK-Blue detection media (Invivogen). Cells are treated with the inhibitors, diluted in DMSO (0.5 μL per well) for 15 min in 5% CO2 tissue culture incubator at 37° C. After that, cells are stimulated by the addition of 1 ng/well L18-MDP (Invivogen). Cells are incubated in 5% CO2 tissue culture incubator at 37° C. for 8 h and absorbance, corresponding to the SEAP in the media, is determined in Wallac3V plate reader (Perkin Elmer). Inhibition, %=(1−((sample signal-unstimulated and DMSO treated cells)/(L18-MDP stimulated and DMSO treated cells−unstimulated and DMSO treated cells)))*100. IC50 values are calculated based on a dose range of inhibitor concentrations using non-linear regression in GraphPad Prism software.

The target of assay [3] is T1, human ALK2 (Homo sapiens, UniProt Q04771).
T1 sequence (Q04771 21-509): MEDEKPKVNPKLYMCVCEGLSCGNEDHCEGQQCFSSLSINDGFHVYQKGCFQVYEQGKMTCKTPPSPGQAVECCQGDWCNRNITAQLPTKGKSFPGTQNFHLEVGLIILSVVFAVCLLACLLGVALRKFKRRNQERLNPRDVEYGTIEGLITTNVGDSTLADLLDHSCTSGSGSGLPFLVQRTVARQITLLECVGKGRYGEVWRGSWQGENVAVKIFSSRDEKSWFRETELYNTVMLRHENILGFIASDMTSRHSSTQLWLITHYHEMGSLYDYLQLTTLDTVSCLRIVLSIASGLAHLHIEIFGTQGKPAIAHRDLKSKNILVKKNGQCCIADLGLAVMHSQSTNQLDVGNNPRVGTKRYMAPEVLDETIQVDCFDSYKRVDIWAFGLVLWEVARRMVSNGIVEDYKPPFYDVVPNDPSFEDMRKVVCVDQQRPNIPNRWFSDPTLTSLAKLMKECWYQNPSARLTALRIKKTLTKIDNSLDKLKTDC
As to the kind of experiment: Activin-Like Kinase 2 (ALK2) enzyme assay. The assay is classed as biochemical. As for the experimental part:
Activin-Like Kinase 2 (ALK2) Enzyme Assay
Enzyme inhibitory activity was evaluated in a standard kinase enzyme assay by incubating human ALK2 with the protein substrate casein (1 mg/mL) and γ-^33ATP (10 μM) in the presence of various concentrations of test compounds (10 nM-100 μM). After 30 min the amount of ^33P-casein was determined.

Consider 16 compounds from patent US11135209B2, “Compositions and methods for inhibiting protein kinases” (UNIVERSITY OF HOUSTON SYSTEM, priority 2017, dated 2021).

Chain of Recombinant RIPK2 protein (O43353 whole entry, species assumed): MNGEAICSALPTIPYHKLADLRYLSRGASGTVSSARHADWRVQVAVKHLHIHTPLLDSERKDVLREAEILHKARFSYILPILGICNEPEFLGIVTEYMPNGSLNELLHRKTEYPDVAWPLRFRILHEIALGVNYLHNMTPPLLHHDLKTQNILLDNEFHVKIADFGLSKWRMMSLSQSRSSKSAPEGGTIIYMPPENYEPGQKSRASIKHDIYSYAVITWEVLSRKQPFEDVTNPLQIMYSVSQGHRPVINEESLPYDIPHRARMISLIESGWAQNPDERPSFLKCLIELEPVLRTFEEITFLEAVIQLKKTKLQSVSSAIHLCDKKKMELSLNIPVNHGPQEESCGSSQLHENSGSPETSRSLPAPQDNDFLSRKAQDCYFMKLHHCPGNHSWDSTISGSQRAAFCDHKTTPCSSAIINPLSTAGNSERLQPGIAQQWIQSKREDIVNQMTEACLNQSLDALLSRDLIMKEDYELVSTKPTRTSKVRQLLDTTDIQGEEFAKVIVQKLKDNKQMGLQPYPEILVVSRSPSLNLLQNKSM

On to `CCCS(=O)(=O)Nc1cc(-c2cc(-c3ccc(N4CCNCC4)cc3)cnc2N)cc(OC)c1OC` [CSLP43, N-(5-(2-Amino-5-(4-(piperazin-1-yl)phenyl)pyridin-3-yl)-2,3-dimethoxyphenyl)propane-1-sulfonamide], for which the IC50 (in general, the concentration at which inhibition is half-maximal) is greater than 10 nM in assay [1], greater than 1 nM in assay [2] and greater than 10 nM in assay [3].
Turning to `CCCS(=O)(=O)Nc1cc(-c2cc(-c3ccccc3S(C)(=O)=O)cnc2N)ccc1OC` [CSLP33, N-(5-(2-Amino-5-(2-(methylsulfonyl)phenyl)pyridin-3-yl)-2-methoxyphenyl)propane-1-sulfonamide], the IC50 is greater than 1000 nM in assay [1], greater than 1000 nM in assay [2] and greater than 100000 nM in assay [3].
For `CCCS(=O)(=O)N1CCOc2c(F)cc(-c3cc(-c4ccc(N5CCNCC5)cc4)cnc3N)cc21` [CSLP57, 3-(8-Fluoro-4-(propylsulfonyl)-3,4-dihydro-2H-benzo[b][1,4]oxazin-6-yl)-5-(4-(piperazin-1-yl)phenyl)pyridin-2-amine], the results for the IC50 in assay [1], in assay [2] and in assay [3] were greater than 100 nM, greater than 100 nM and greater than 1000 nM, respectively.
`COc1ccc(-c2cc(-c3ccc(N4CCNCC4)cc3)cnc2N)cc1NS(=O)(=O)C(C)C` [CSLP28, N-(5-(2-Amino-5-(4-(piperazin-1-yl)phenyl)pyridin-3-yl)-2-methoxyphenyl)propane-2-sulfonamide]: the IC50 is greater than 10 nM in assay [1], greater than 100 nM in assay [2] and greater than 1000 nM in assay [3].
For `CCCS(=O)(=O)Nc1cc(-c2cc(-c3ccc(N4CCNCC4)cc3)cnc2N)cc(F)c1C` [CSLP41, N-(5-(2-Amino-5-(4-(piperazin-1-yl)phenyl)pyridin-3-yl)-3-fluoro-2-methylphenyl)propane-1-sulfonamide] the same measures were greater than 100 nM, greater than 100 nM and greater than 100000 nM.
For `CCCS(=O)(=O)Nc1cc(-c2cc(-c3ccc(N4CCNCC4)cc3)cnc2N)cc(OCC)c1OCC` [CSLP49] the same measures were greater than 1000 nM, greater than 1000 nM and greater than 100000 nM.
The corresponding values for `CCCS(=O)(=O)N1CCc2ccc(-c3cc(-c4ccc(N5CCNCC5)cc4)cnc3N)cc21` [CSLP46, 5-(4-(Piperazin-1-yl)phenyl)-3-(1-(propylsulfonyl)indolin-6-yl)pyridin-2-amine] are greater than 100 nM, greater than 1000 nM and greater than 100000 nM.
`COc1cc(NS(=O)(=O)CC(C)C)cc(-c2cc(-c3ccc(N4CCNCC4)cc3)cnc2N)c1` [CSLP12, N-(3-(2-Amino-5-(4-(piperazin-1-yl)phenyl)pyridin-3-yl)-5-methoxyphenyl)-2-methylpropane-1-sulfonamide]: the figures for the IC50 in assay [1], in assay [2] and in assay [3] were greater than 10 nM, greater than 100 nM and greater than 1 nM, respectively.
The corresponding values for `CCCS(=O)(=O)Nc1cc(-c2cc(-c3ccc(N4CCNCC4)cc3)cnc2N)cc(C)c1OC` [CSLP42, N-(5-(2-Amino-5-(4-(piperazin-1-yl)phenyl)pyridin-3-yl)-2-methoxy-3-methylphenyl)propane-1-sulfonamide] are greater than 10 nM, greater than 100 nM and greater than 100 nM.
The corresponding values for `COc1cc(-c2cc(-c3ccc(N4CCNCC4)cc3)cnc2N)cc(NS(=O)(=O)C(C)C)c1C` [CSLP25, N-(5-(2-Amino-5-(4-(piperazin-1-yl)phenyl)pyridin-3-yl)-3-methoxy-2-methylphenyl)propane-2-sulfonamide] are greater than 1000 nM, greater than 1000 nM and greater than 1000 nM.
The corresponding values for `CCCS(=O)(=O)NCc1cc(-c2cc(-c3ccc(N4CCNCC4)cc3)cnc2N)ccc1OC` [CSLP36, N-(5-(2-Amino-5-(4-(piperazin-1-yl)phenyl)pyridin-3-yl)-2-methoxybenzyl)propane-1-sulfonamide] are greater than 100 nM, greater than 1000 nM and greater than 100 nM.
As for `CCCS(=O)(=O)Nc1cc(OC)cc(-c2cc(-c3ccc(N4CCNCC4)cc3)cnc2N)c1` [CSLP6], the IC50 was greater than 10 nM in assay [1], greater than 100 nM in assay [2] and greater than 1 nM in assay [3].
The corresponding values for `CCCS(=O)(=O)Nc1cc(-c2cc(-c3ccc(N4CCNCC4)cc3)cnc2N)ccc1OC` [CSLP18] are greater than 10 nM, greater than 100 nM and greater than 1000 nM.
Regarding `CCCS(=O)(=O)Nc1cc(OC)cc(-c2cc(-c3cccc(S(C)(=O)=O)c3)cnc2N)c1` [CSLP44, N-(3-(2-Amino-5-(3-(methylsulfonyl)phenyl)pyridin-3-yl)-5-methoxyphenyl)propane-1-sulfonamide], the 50% inhibitory concentration (IC50) was greater than 10 nM in assay [1], greater than 1000 nM in assay [2] and greater than 100 nM in assay [3].
Turning to `CCCS(=O)(=O)Nc1cc(OC)cc(-c2cc(-c3ccc(N4CCNCC4)cc3)cnc2C)c1` [CSLP10, N-(3-Methoxy-5-(2-methyl-5-(4-(piperazin-1-yl)phenyl)pyridin-3-yl)phenyl)propane-1-sulfonamide], the 50% inhibitory concentration (IC50) in assay [1] was greater than 100 nM; in assay [2] it was greater than 1000 nM; in assay [3], greater than 10 nM. In addition, the inhibition (as a rule, the share of the control response that was lost under treatment) at 0.5 µM in assay [1] came out at 84%.
The corresponding values for `COc1cc(NS(=O)(=O)C(C)C)cc(-c2cc(-c3ccc(N4CCNCC4)cc3)cnc2C)c1` [CSLP16, N-(3-Methoxy-5-(2-methyl-5-(4-(piperazin-1-yl)phenyl)pyridin-3-yl)phenyl)propane-2-sulfonamide] are greater than 10 nM, greater than 100 nM, greater than 100 nM and 85%.
